9 molecules from patent US12433872B2, “Treatment of Acanthamoeba or Balamuthia trophozoites and/or cysts” (GEORGIA STATE UNIVERSITY RESEARCH FOUNDATION, INC., priority 2018, dated 2025) can be followed below.

Molecules are shown by their SMILES. Like-named read-outs stand apart in the source and are kept apart here.

Holding throughout (assay type): cell-based
For experiment [1], the system named is Acanthamoeba castellanii trophozoites. The experiment can be described thus: Activity against Acanthamoeba castellanii trophozoites. The protocol:
Two Acanthamoeba species (Acanthamoeba castellanii—ATCC50370 and Acanthamoeba culbertsoni—ATCC30171) were bought from the American Type Culture Collection (ATCC) and one species (Acanthamoeba healyi) was donated from the Centers for Disease Control and Prevention (CDC) for our experimentations. Trophozoites were thawed and grown in 10 mL of a nutrient rich Peptose-Glucose (PG) media. The PG media composition is 83.26 mM Glucose (15 g/L), Protease Peptone (15 g/L, yeast extract is manufactured under controlled conditions to retain its vitamin content and other nutritive values such as free amino acids, no other composition information given), 2.2 mM KH2PO4 (300 mg/L), 2.97 μM Thiamine (1 mg/L), 99.86 μM L-methionine (14.9 mg/L), 4.6 μM Vitamin B12 (83.3 μl of 0.1 mg/mL stock/L) and 68 μM Biotin (83.3 μl of 0.2 mg/mL stock/L). […] One mL/L of the salt solution was added to the media stock prior to autoclaving. All reagents were purchased from Sigma Aldrich except the Glucose which was purchased from Alfa Aesar. The cell pellet was resuspended in a final volume of 10 mL of PG media, cultured in 75 cm^2 coming tissue culture flasks and incubated at 27° C. PG was supplemented with 125 μg of penicillin/streptomycin. Sub-culturing occurred twice per week to allow the continued growth and development of the Acanthamoeba trophozoites. […]

A further experiment concerns A549 cells. The experiment can be described thus: Toxicity to human A549 cells.
For experiment [2], the system named is Acanthamoeba castellanii (ATCC50370) cysts. Briefly: Encystation drug susceptibility / excystation viability assay, 30 day recovery, A. castellanii cysts. Particulars: ATCC50370, 720 h, read-out: A. castellanii 30 day MCC. The procedure: (§1) The trophozoites of Acanthamoeba were harvested by mechanical detachment and collected via centrifugation at 4000 rpm at 4° C. for 5 minutes. The trophozoites were washed in 10 mL of Neff's Encystment Media (NEM). NEM composition is 20 mM Tris-HCL [pH 8.8] (2.43 g/L), 100 mM KCL (7.46 g/L), 8 mM MgSO4 (962.96 mg/L), 0.4 mM CaCL2 58.81 mg/L) and 1 mM NaHCO3 (84.01 mg/L) (Neff et al. 1964). All reagents were bought from Sigma Aldrich. Centrifugation of the trophozoites was repeated to ensure any residual growth medium was removed. The pellet was resuspended in a final volume of 15 mL of NEM, cultured in 75 cm^2 corning tissue culture flasks and incubated vertically in a thermal shaker, shaken at 100 rpm at 37° C. for 72 hours to produce fully matured cysts. NEM was supplemented with 250 μg of penicillin/streptomycin. Fresh cysts were produced each time for any experimentation.
(§2) At 72 hours the cysts were harvested using a cell scraper and collected via centrifugation at 4000 rpm at 25° C. for 10 minutes. The cells were washed twice in 10 mL of HyClone™ water, Molecular Biology Grade, and centrifugation was repeated to ensure the removal of any residual NEM. The cell suspension was washed with 0.5% sodium dodecyl sulphate (SDS) to remove any remaining trophozoites and immature cysts. The fully mature cysts were further washed twice with 10 mL of HyClone™ water and 1% NEM, centrifugation was repeated to remove any residue of SDS. The concentration of mature cysts was determined using a haemocytometer and adjusted to 1×10^4 cysts/mL in NEM.
(§3) All test compounds were prepared as 5 mg/mL stock solutions in dimethylsulfoxide (DMSO). All compounds were diluted in NEM, serially diluted in 2-fold dilutions 6 or 11 times, yielding a screening concentration range of 1.56 μg/mL to 50 μg/mL or 48 ng/mL to 50 μg/mL with a final highest screening concentration of 1% DMSO.
(§4) Based on this, a strain specific test period and also a 30 day non-specific recovery time were considered. For the 30 day recovery period, the media was changed 5 times to ensure the contents of wells dis not evaporate and have an effect within the results of the assay.
(§5) 90 μL of 1×10^4 Cysts/ml and 10 μL of experimental compounds from the screening plates were produced according to the protocols above and combined into a Corning clear 96 well treated tissue culture plate. Control wells include cysts in non-drug treated, 1% DMSO, NEM (to be used for negative growth control), NEM Blank, PG blank and cysts in non-drug treated, 1% DMSO, PG (to excyst cells and to be used for positive growth control). The total well volume for all wells was 100 μL. The drug exposed plates were screened at 27° C. for 6 or 24 hours only. At the exposure time point the plates were centrifuged at 4000 rpm at 25° C. for 10 minutes and washed twice with phosphate-buffered saline (PBS) to remove any residual experimental compound.
(§6) Once the plate(s) underwent the Encystation drug susceptibility process, all wells except the negative growth control and NEM blank wells received PG growth medium. All plates were left to recover at 27° C. for the strain specific time period of 5, 9 or 11 days depending on the species of Acanthamoeba. At each of the strain specific time points the plates were removed from incubation and microscopically analysed (qualitatively) for the excystation process for the emergence of excysted viable trophozoites or residual cysts. The presence of excysted trophozoites indicated viable amoebae (non-cystistatic or cysticidal—no effect) and the absence of excystation was considered as cystistatic/cysticidal effects.

For experiment [3], the system named is Acanthamoeba healyi cysts. Briefly: Encystation drug susceptibility / excystation viability assay, 30 day recovery, A. healyi cysts. Particulars: 720 h, read-out: A. healyi 30 day MCC. The protocol: as §1, §2, §3, §4, §5, §6
For experiment [4], the system named is Acanthamoeba culbertsoni (ATCC30171) cysts. Briefly: Encystation drug susceptibility / excystation viability assay, 30 day recovery, A. culbertsoni cysts. The conditions noted are these: ATCC30171, 720 h, read-out: A. culbertsoni 30 day MCC. The procedure:
as §1, §2, §3, §4, §5, §6

Experiment [5] relates to Balamuthia mandrillaris trophozoites. The experiment can be described thus: Activity against Balamuthia mandrillaris trophozoites. Particulars: for IC50: Balamuthia mandrillaris. The procedure:
Balamuthia mandrillaris trophozoites were thawed and grown in 10 ml of BM-3 medium. […] After autoclaving, complete BM-3 media was produced by the addition of 10% fetal bovine serum and 125 μg of penicillin/streptomycin antibiotics. The table describes all of the compounds and the activity against Balamuthia trophozoites compared to the activity for select Acanthamoeba trophozoites shown in Table 5.

[6] abbreviates: read-out: A. cactellanii Trophozoite IC50.
Setting [7] is: read-out: Acanthamoeba castellanii IC50.
Setting [8] is: Homo sapiens, A549, read-out: A549 cell IC50.
Setting [9] is: read-out: Balamuthia mandrillaris IC50.
Setting [10] is: trophozoites, n = 2, Table 6, read-out: Acanthamoeba castellanii IC50.
The mark [11] stands for this setting: human A549 cells, read-out: A549 cell IC50.
[12] abbreviates: minimum cysticidal concentration, no recovery up to 30 days.
Where [13] appears, read: trophozoites, n = 2, read-out: Balamuthia mandrillaris IC50.

As to `CC(C)NC(=N)c1ccc2nc(-c3cc(F)c(Oc4ccc(-c5nc6ccc(C(=N)NC(C)C)cc6[nH]5)c(Br)c4)c(F)c3)[nH]c2c1` [Compound F, 2-(2-Bromo-4-(2,6-difluoro-4-(6-(N-isopropylcarbamimidoyl)-1H-benzo[d]imidazol-2-yl)phenoxy)phenyl)-N-isopropyl-1H-benzo[d]imidazole-6-carboximidamide], the IC50 turned out to be 590 nM in experiment [1] (setting [6]), 590 nM in experiment [1] (setting [7]), 13700 nM in the experiment with A549 cells (setting [8]) and 590 nM in experiment [5] (setting [9]). The MCC was 5.29 µM in experiment [2], 3.52 µM in experiment [3] and 5.29 µM in experiment [4].

For the molecule `CC(C)NC(=N)c1ccc2nc(-c3ccc(Oc4cc(F)c(-c5nc6ccc(C(=N)NC(C)C)cc6[nH]5)c(F)c4)cc3Br)[nH]c2c1` [Compound G, 2-(2-Bromo-4-(3,5-difluoro-4-(6-(N-isopropylcarbamimidoyl)-1H-benzo[d]imidazol-2-yl)phenoxy)phenyl)-N-isopropyl-1H-benzo[d]imidazole-6-carboximidamide], the 50% inhibitory concentration (IC50) is 260 nM in experiment [1] (setting [6]), 260 nM in experiment [1] (setting [7]), 6020 nM in the experiment with A549 cells (setting [8]) and 110 nM in experiment [5] (setting [9]). Besides, the MCC in experiment [2], in experiment [3] and in experiment [4] was 1.75 µM in each case.

Take `COc1cc(Oc2ccc(-c3nc4ccc(C(=N)NC(C)C)cc4[nH]3)c(Br)c2)ccc1-c1nc2ccc(C(=N)NC(C)C)cc2[nH]1` [N, 2-(2-Bromo-4-(4-(6-(N-isopropylcarbamimidoyl)-1H-benzo[d]imidazol-2-yl)-3-methoxyphenoxy)phenyl)-N-isopropyl-1H-benzo[d]imidazole-6-carboximidamide]: the half-maximal inhibitory concentration (IC50) in experiment [1] (setting [10]) was found to be 560 nM; in the experiment with A549 cells (setting [11]), 3920 nM; in experiment [5] (setting [13]), 120 nM. In addition, the MCC in experiment [2] (setting [12]) is 9.2 µM; in experiment [3] (setting [12]), 5.52 µM; in experiment [4] (setting [12]), 3.68 µM.

As to `CC(C)NC(=N)c1ccc2nc(-c3ccc(Oc4ccc(-c5nc6ccc(C(=N)NC(C)C)cc6[nH]5)c(Cl)c4)cc3Cl)[nH]c2c1` [L, 2-2′-(Oxybis(2-chloro-4,1-phenylene))bis(N-isopropyl-3H-benzo[d]imidazole-6-carboximidamide)], the IC50 in experiment [1] (setting [10]) was 390 nM; in the experiment with A549 cells (setting [11]), 4170 nM; in experiment [5] (setting [13]) it was 80 nM. Besides, the MCC in experiment [2] (setting [12]), in experiment [3] (setting [12]) and in experiment [4] (setting [12]) was 2.88 µM throughout.

Turning to `CC(C)NC(=N)c1ccc2nc(-c3ccc(Oc4ccc(-c5nc6ccc(C(=N)NC(C)C)cc6[nH]5)c(Br)c4)cc3)[nH]c2c1` [M, 2-(2-Bromo-4-(4-(6-(N-isopropylcarbamimidoyl)-1H-benzo[d]imidazol-2-yl)phenoxy)phenyl)-N-isopropyl-1H-benzo[d]imidazole-6-carboximidamide], the results for the IC50 (in experiment [1] (setting [10]); with A549 cells (setting [11]); in experiment [5] (setting [13])) were 390 nM, 3920 nM and 80 nM, respectively. In addition, the MCC in experiment [2] (setting [12]) is 2.85 µM; in experiment [3] (setting [12]) it was 3.8 µM; in experiment [4] (setting [12]), 5.7 µM.

Regarding `COc1cc(Oc2c(F)cc(-c3nc4ccc(C(=N)NC(C)C)cc4[nH]3)cc2F)ccc1-c1nc2ccc(C(=N)NC(C)C)cc2[nH]1` [Compound A, 2-(3,5-Difluoro-4-(4-(6-(N-isopropylcarbamimidoyl)-1H-benzo[d]imidazol-2-yl)-3-methoxyphenoxy)phenyl)-N-isopropyl-1H-benzo[d]imidazole-6-carboximidamide], the IC50 stood at 1190 nM in experiment [1] (setting [6]); 1190 nM in experiment [1] (setting [7]); 32700 nM in the experiment with A549 cells (setting [8]); 600 nM in experiment [5] (setting [9]); 600 nM in experiment [5] (read-out: IC50 against B. mandrillaris). Moreover, the MCC in experiment [2] was found to be 47.4 µM; in experiment [3] it was 7.9 µM; in experiment [4] it was 7.9 µM. Besides, the “times more potent than pentamide as reported in Schuster et al.” value in experiment [5] (B. mandrillaris, versus pentamidine 29.38 μM) stood at 48.9.

Turning to `CC(C)NC(=N)c1ccc2nc(-c3cc(F)c(Oc4ccc(-c5nc6ccc(C(=N)NC(C)C)cc6[nH]5)c(F)c4)c(F)c3)[nH]c2c1` [Compound C, 2-(3,5-Difluoro-4-(3-fluoro-4-(6-(N-isopropylcarbamimidoyl)-1H-benzo[d]imidazol-2-yl)phenoxy)phenyl)-N-isopropyl-1H-benzo[d]imidazole-6-carboximidamide], the IC50 in experiment [1] (setting [6]) amounted to 1220 nM; in experiment [1] (setting [7]), 1220 nM; in the experiment with A549 cells (setting [8]), 34800 nM; in experiment [5] (setting [9]), 490 nM. For the same molecule, the MCC amounted to 23.1 µM in experiment [2], 23.1 µM in experiment [3] and 11.6 µM in experiment [4].

With `CC(C)NC(=N)c1ccc2nc(-c3ccc(Oc4ccc(-c5nc6ccc(C(=N)NC(C)C)cc6[nH]5)c(Br)c4)c(F)c3)[nH]c2c1` [Q, 2-(2-Bromo-4-(2-fluoro-4-(6-(N-isopropylcarbamimidoyl)-1H-benzo[d]imidazol-2-yl)phenoxy)phenyl)-N-isopropyl-1H-benzo[d]imidazole-6-carboximidamide], the IC50 in experiment [1] (setting [10]) came to 410 nM; with A549 cells (setting [11]), 3510 nM; in experiment [5] (setting [13]), 100 nM. For the same molecule, the MCC came to 3.6 µM in experiment [2] (setting [12]), 3.6 µM in experiment [3] (setting [12]) and 2.7 µM in experiment [4] (setting [12]).

Turning to `CC(C)NC(=N)c1ccc2nc(-c3ccc(Oc4ccc(-c5nc6ccc(C(=N)NC(C)C)cc6[nH]5)cc4Cl)c(Cl)c3)[nH]c2c1` [P, 2,2′-(Oxybis(3-chloro-4,1-phenylene))bis(N-isopropyl-1H-benzo[d]imidazole-6-carboximidamide)], the IC50 worked out at 810 nM in experiment [1] (setting [10]), 4910 nM in the experiment on A549 cells (setting [11]) and 180 nM in experiment [5] (setting [13]). The MCC in experiment [2] (setting [12]) is 18 µM; in experiment [3] (setting [12]), 9.99 µM; in experiment [4] (setting [12]), 20 µM.
